# Assay results: ChEMBL document CHEMBL1932914, “A new class of non-thiazolidinedione, non-carboxylic-acid-based highly selective peroxisome proliferator-activated receptor (PPAR) γ agonists: design and synthesis of benzylpyrazole acylsulfonamides” (Bioorg Med Chem, 2012)
# Calls of active or inactive are those of the source. No cut-off for these calls is given here.
# Assays:
# [1] = biological target: T1, Peroxisome proliferator-activated receptor gamma (Homo sapiens, UniProt P37231); test: Agonist activity at full length human PPARgamma1 transfected in […] cells co expressing RXRalpha and PPRE after 1 day by luciferase reporter gene transactivation assay; format: functional, cell-based, CHO-K1
# T1 sequence (P37231 whole entry): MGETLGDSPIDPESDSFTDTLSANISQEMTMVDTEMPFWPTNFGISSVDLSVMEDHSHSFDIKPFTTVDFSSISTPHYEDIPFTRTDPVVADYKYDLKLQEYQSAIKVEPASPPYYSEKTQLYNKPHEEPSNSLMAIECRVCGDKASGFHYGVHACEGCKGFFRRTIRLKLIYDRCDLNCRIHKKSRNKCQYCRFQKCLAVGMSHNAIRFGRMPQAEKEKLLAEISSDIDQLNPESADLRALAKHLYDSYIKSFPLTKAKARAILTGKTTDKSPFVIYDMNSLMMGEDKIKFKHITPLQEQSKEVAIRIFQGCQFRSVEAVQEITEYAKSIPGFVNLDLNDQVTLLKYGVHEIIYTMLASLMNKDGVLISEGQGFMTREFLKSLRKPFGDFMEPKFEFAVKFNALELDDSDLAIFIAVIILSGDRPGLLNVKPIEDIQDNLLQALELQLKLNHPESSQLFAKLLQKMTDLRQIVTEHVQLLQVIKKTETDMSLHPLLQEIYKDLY
# [2] = biological target: T2, Peroxisome proliferator-activated receptor alpha (Homo sapiens, UniProt Q07869); test: Agonist activity at human PPARalpha expressed in COS-1 cells after 1 day by luciferase reporter gene transactivation assay; format: functional, cell-based
# T2 sequence (Q07869 whole entry): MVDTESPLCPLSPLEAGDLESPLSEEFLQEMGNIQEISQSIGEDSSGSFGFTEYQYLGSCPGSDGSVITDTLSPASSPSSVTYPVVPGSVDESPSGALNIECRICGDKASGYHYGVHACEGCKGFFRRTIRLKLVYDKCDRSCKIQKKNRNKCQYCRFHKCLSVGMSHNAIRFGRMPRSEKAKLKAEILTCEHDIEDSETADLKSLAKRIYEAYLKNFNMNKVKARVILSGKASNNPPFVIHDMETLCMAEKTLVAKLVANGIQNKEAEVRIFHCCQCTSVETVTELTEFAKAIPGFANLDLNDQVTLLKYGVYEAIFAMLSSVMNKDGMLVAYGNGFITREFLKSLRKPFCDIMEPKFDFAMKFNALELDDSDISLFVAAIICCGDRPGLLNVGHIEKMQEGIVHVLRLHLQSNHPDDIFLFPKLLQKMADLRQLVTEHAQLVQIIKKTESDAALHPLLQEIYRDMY
# [3] = biological target: T3, Peroxisome proliferator-activated receptor delta (Homo sapiens, UniProt Q03181); test: Agonist activity at human PPARdelta expressed in COS-1 cells after 2 days by luciferase reporter gene transactivation assay; format: functional, cell-based
# T3 sequence (Q03181 whole entry): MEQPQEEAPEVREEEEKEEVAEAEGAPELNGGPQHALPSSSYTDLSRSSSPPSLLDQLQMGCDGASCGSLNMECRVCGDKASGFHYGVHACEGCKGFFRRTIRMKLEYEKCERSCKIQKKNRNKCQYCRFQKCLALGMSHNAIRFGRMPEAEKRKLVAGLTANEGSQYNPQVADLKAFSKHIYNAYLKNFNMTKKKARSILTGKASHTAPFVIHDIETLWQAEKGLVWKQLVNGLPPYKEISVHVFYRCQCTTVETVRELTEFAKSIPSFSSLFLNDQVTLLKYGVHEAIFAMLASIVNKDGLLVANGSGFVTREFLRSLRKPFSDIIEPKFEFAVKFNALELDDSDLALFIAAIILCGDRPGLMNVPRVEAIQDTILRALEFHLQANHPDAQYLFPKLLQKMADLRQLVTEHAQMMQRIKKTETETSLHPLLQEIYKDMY
# [4] = Clearance in human liver microsomes at 1 umol/L after 20 mins by HPLC analysis; format: ADME, Microsome; conditions: read-out: CLH
# Homo sapiens = organism: Homo sapiens; test: Selectivity ratio of EC50 for human PPARalpha to EC50 for human PPARgamma1
# [5] = biological target: PPAR delta/gamma (Homo sapiens) (UniProt P37231+Q03181); test: Selectivity ratio of EC50 for human PPARdelta to EC50 for human PPARgamma1
# Rattus norvegicus [6] = test: Antidiabetic activity in po dosed fatty Wister rat assessed as reduction of plasma glucose level administered once daily for 7 days; format: functional; conditions: for ED25: 168 h
# [7] = Clearance in rat liver microsomes at 1 umol/L after 20 mins by HPLC analysis; format: ADME, Microsome; conditions: read-out: CLH
# [8] = biological target: T1, Peroxisome proliferator-activated receptor gamma; test: Displacement of [3H]-AD-5061 from human GST-tagged PPARgamma
# [9] = biological target: T4, Peroxisome proliferator-activated receptor alpha (Homo sapiens) (UniProt Q07869); test: Binding affinity to PPARalpha at 10 uM by competitive binding assay
# T4 sequence (whole entry): T2 sequence (Q07869 whole entry)
# [10] = biological target: T5, Peroxisome proliferator-activated receptor delta (Homo sapiens) (UniProt Q03181); test: Binding affinity to PPARdelta at 10 uM by competitive binding assay
# T5 sequence (whole entry): T3 sequence (Q03181 whole entry)
# Rattus norvegicus [11] = test: Antidiabetic activity in po dosed fatty Wister rat assessed as reduction of triglyceride level administered once daily for 7 days; format: functional; conditions: for ED25: 168 h
# [12] = biological target: T4, Peroxisome proliferator-activated receptor alpha (Homo sapiens); test: Agonist activity at human PPARalpha expressed in COS-1 cells at 10 uM after 1 day by luciferase reporter gene transactivation assay; format: functional, cell-based
EC50 ([1]; read-out: EC50),EC50 [2],EC50 [3],microsomal CLint at 1 µM [4],Ratio EC50 (Homo sapiens),Ratio EC50 [5],SMILES,further results
150 nM,> 10000 nM,> 10000 nM,–,–,–,CC(C)Oc1cc(CCC(=O)NS(=O)(=O)C2CCCCC2)n(Cc2ccc(Cl)cc2Cl)n1,–
–,> 10000 nM,> 10000 nM,136 µL/min/mg,> 500,> 500,CCCCCS(=O)(=O)NC(=O)CCc1cc(C(C)C)nn1Cc1ccc(C(F)(F)F)cc1Cl,–
450 nM,–,–,–,–,–,CC(C)Oc1cc(CCC(=O)NS(C)(=O)=O)n(Cc2ccc(Cl)cc2Cl)n1,–
13 nM,> 10000 nM,> 10000 nM,124 µL/min/mg,> 500,> 500,CCCCCS(=O)(=O)NC(=O)CCc1cc(C(C)C)nn1Cc1ccc(Cl)cc1Cl,–
160 nM,–,–,–,–,–,CCCS(=O)(=O)NC(=O)CCc1cc(OC(C)C)nn1Cc1ccc(Cl)cc1Cl,–
11 nM,> 10000 nM,> 10000 nM,111 µL/min/mg,–,–,CCCCCS(=O)(=O)NC(=O)CCc1cc(-c2ccccc2)nn1Cc1ccc(Cl)cc1Cl,–
–,–,–,192 µL/min/mg,> 500,> 500,CCCCCS(=O)(=O)NC(=O)CCc1cc(OC(C)C)nn1Cc1ccc(Cl)cc1Cl,Activity (Rattus norvegicus [6]): inactive; microsomal CLint at 1 µM [7]: 128 µL/min/mg
–,> 10000 nM,> 10000 nM,29 µL/min/mg,> 500,> 500,CCCCCS(=O)(=O)NC(=O)/C=C/c1cc(OC(C)C)nn1Cc1ccc(Cl)cc1Cl,–
260 nM,–,–,107 µL/min/mg,–,–,CC(C)Oc1cc(CCC(=O)NS(=O)(=O)Cc2ccccc2)n(Cc2ccc(Cl)cc2Cl)n1,–
–,> 10000 nM,> 10000 nM,26 µL/min/mg,> 500,> 500,CCCCCS(=O)(=O)NC(=O)/C=C/c1cc(OC(C)C)nn1Cc1ccc(C(F)(F)F)cc1Cl,IC50 [8]: 23 nM; Activity [9]: inactive; Activity [10]: inactive; Activity (Rattus norvegicus [6]): Dose-dependent effect; ED25 (Rattus norvegicus [6]): 0.12 mg/kg; microsomal CLint at 1 µM [7]: 33 µL/min/mg; Activity (Rattus norvegicus [11]): Dose-dependent effect; ED25 (Rattus norvegicus [11]): 0.04 mg/kg
14 nM,> 10000 nM,> 10000 nM,100 µL/min/mg,–,–,CCCCCS(=O)(=O)NC(=O)CCc1cc(OCc2ccccc2)nn1Cc1ccc(Cl)cc1Cl,–
500 nM,–,–,–,–,–,CC(C)Oc1cc(CCC(=O)O)n(Cc2ccc(Cl)cc2Cl)n1,–
29 nM,–,–,–,–,–,CCCCCS(=O)(=O)NC(=O)CCCCc1cc(OCCCC)nn1Cc1ccc(Cl)cc1Cl,–
110 nM,> 10000 nM,> 10000 nM,–,–,–,CC(C)Oc1cc(CCC(=O)NS(=O)(=O)c2ccccc2)n(Cc2ccc(Cl)cc2Cl)n1,–
> 10000 nM,–,–,–,–,–,CCCCCS(=O)(=O)NC(=O)Cc1cc(OCCCC)nn1Cc1ccc(Cl)cc1Cl,–
67 nM,–,–,–,–,–,CCCCCS(=O)(=O)NC(=O)CCCc1cc(OCCCC)nn1Cc1ccc(Cl)cc1Cl,–
31 nM,> 10000 nM,> 10000 nM,144 µL/min/mg,–,–,CCCCCS(=O)(=O)NC(=O)CCc1cc(OCCOC)nn1Cc1ccc(Cl)cc1Cl,–
9 nM,> 10000 nM,> 10000 nM,34 µL/min/mg,> 500,> 500,COCCOc1cc(/C=C/C(=O)NS(=O)(=O)CCC(C)C)n(Cc2ccc(C(F)(F)F)cc2Cl)n1,Activity [12]: 47%
–,> 10000 nM,> 10000 nM,–,–,–,CCCCCS(=O)(=O)NC(=O)CCc1cc(OCCCC)nn1Cc1ccc(Cl)cc1Cl,–
21 nM,> 10000 nM,> 10000 nM,–,–,–,CCCCCCS(=O)(=O)NC(=O)CCc1cc(OC(C)C)nn1Cc1ccc(Cl)cc1Cl,–
–,> 10000 nM,> 10000 nM,32 µL/min/mg,> 500,> 500,CC(C)CCS(=O)(=O)NC(=O)/C=C/c1cc(OC(C)C)nn1Cc1ccc(C(F)(F)F)cc1Cl,IC50 [8]: 15 nM; Activity [9]: inactive; Activity [10]: inactive; Activity (Rattus norvegicus [6]): Dose-dependent effect; ED25 (Rattus norvegicus [6]): 0.21 mg/kg; microsomal CLint at 1 µM [7]: 51 µL/min/mg; Activity (Rattus norvegicus [11]): Dose-dependent effect; ED25 (Rattus norvegicus [11]): 0.09 mg/kg; Activity [12]: 48%
8.2 nM,> 10000 nM,> 10000 nM,99 µL/min/mg,> 500,> 500,CCCCCS(=O)(=O)NC(=O)/C=C/c1cc(C(C)C)nn1Cc1ccc(Cl)cc1Cl,–
13 nM,> 10000 nM,> 10000 nM,78 µL/min/mg,> 500,> 500,CCCCCS(=O)(=O)NC(=O)CCc1cc(C2CC2)nn1Cc1ccc(C(F)(F)F)cc1Cl,–
–,–,–,–,–,–,CCCCCS(=O)(=O)NC(=O)c1cc(OCCCC)nn1Cc1ccc(Cl)cc1Cl,EC50 ([1]; cho-k1): Not Active
17 nM,> 10000 nM,> 10000 nM,–,–,–,CC(C)CCS(=O)(=O)NC(=O)CCc1cc(OC(C)C)nn1Cc1ccc(Cl)cc1Cl,–
40 nM,> 10000 nM,> 10000 nM,165 µL/min/mg,–,–,CCCCS(=O)(=O)NC(=O)CCc1cc(OC(C)C)nn1Cc1ccc(Cl)cc1Cl,–
10 nM,> 10000 nM,> 10000 nM,163 µL/min/mg,> 500,> 500,CCCCCS(=O)(=O)NC(=O)CCc1cc(OC(C)C)nn1Cc1ccc(C(F)(F)F)cc1Cl,IC50 [8]: 21 nM; Activity [9]: inactive; Activity [10]: inactive
120 nM,> 10000 nM,> 10000 nM,224 µL/min/mg,–,–,CCCCCS(=O)(=O)NC(=O)CCc1cc(OCc2ccccn2)nn1Cc1ccc(Cl)cc1Cl,–
–,> 10000 nM,> 10000 nM,54 µL/min/mg,> 500,> 500,CCCCCS(=O)(=O)NC(=O)/C=C/c1cc(C2CC2)nn1Cc1ccc(C(F)(F)F)cc1Cl,IC50 [8]: 12 nM; Activity [9]: inactive; Activity [10]: inactive; Activity (Rattus norvegicus [6]): Dose-dependent effect; ED25 (Rattus norvegicus [6]): 0.42 mg/kg; microsomal CLint at 1 µM [7]: 116 µL/min/mg; Activity (Rattus norvegicus [11]): Dose-dependent effect; ED25 (Rattus norvegicus [11]): 0.55 mg/kg
